# Results as given in US11534412B2, “Application of totarol and pharmaceutical composition containing totarol” (Emergopharm SP. Z O.O. SP.K., priority 2017, dated 2022).
# Test system: Lactobacillus plantarum - clinical strain
# Test: Determination of the MIC value of totarol, broth dilution in 96-well plates with OD and quantitative culture
# Assay type: cell-based
# Conditions: for OD, average of 3 measurements / OD: 620 nm
# Protocol: Test of antibacterial activity of totarol using DMI (dimethylisosorbide) as a solvent.
# A suspension of 0.5 McF in physiological saline (suspension density 10^8 cfu/ml) was prepared from a 24-hour culture of a standard strain. 1 ml of the suspension was collected to 9 ml of a TSB broth ([…]). Suspensions with a dilution of 10^−6 were prepared in the described way. A suspension with a cell density of 10^5 cfu/ml was selected for further investigations. For each strain, 2 96-well plates were prepared: the first one was intended for the OD measurement, the second one—for quantitative culture on solid media. • A/ to wells B1-D1, B2-D2 and B-D 4-11, 100 µl of the broth were added; • B/ to wells B3-D3, 200 µl of the broth were added; • C/ to wells B1-D1, 1 µl of stock I was added; • D/ to wells B2-D2, 1 µl of stock II was added; • E/ to wells B3-D3, 2 µl of stock III were added. Using a multichannel pipette, 100 µl of the sample were collected from each of the B3-D3 wells and placed in wells B4-D4 (mixing by sucking the content in and letting it out for 5 times). The pipette tips were replaced and 100 µl of the content were collected from of the B4-D4 wells, and placed in wells B5-D5, mixing as previously. These operations were repeated through the wells B11-D11. The content in the B11-D11 wells was mixed, and 100 µl of the fluid were collected and discarded. This way, a series of dilutions of totarol samples in DMI in the range of 0.32% to 0.0004% was obtained. Then, 100 µl of a corresponding bacterial culture were added to the wells B, C, D 1-11. In consequence, a change in the final concentration range occurred, to 0.16%-0.0002%. Control Preparation: • Negative control: 100 µl of the broth+1 pl DMI were added to the Al well. • Positive control (I): 100 µl of the broth with the bacterial culture were added to the wells E1-G1. • Diluent positive control (II): 100 µl of the broth with the bacterial culture+1 pl DMI were added to the wells E2-G2. The OD value in the individual wells was read at the wavelength of 620 nm (read time 0). From the second 96-well plate, a culture was inoculated by a quantitative method from every dilution onto a well with a proper solid medium, and incubated for 24 h at 37° C. under aerobic or anaerobic conditions, depending on the strain. The plates were incubated under aerobic conditions or in an atmosphere of an elevated CO2 concentration (for the strains requiring it) in an incubator at 37° C. The OD was read after 8 h, 16 h, and 24 h, respectively. Before every OD measurement, the contents of the wells were mixed delicately. In parallel to the OD readout, cultures we inoculated from the second 96-well plate, from every dilution, into plates with a proper solid medium, and incubated for 24 h at 37° C., under aerobic or anaerobic conditions. For the analysis of the experimental results, an average value of the OD measurement obtained from three repetitions in the individual times (0, 8, 16, and 24 h) for the individual microbes (Gardnerella vaginalis, Streptococcus agalactiae, Enterococcus faecalis, Lactobacillus gasseri/plantarum) was taken. Additionally, the number of bacteria grown on solid media was taken into account. The results of the tests confirm the specific, concentration-dependent selectiveness, and the high antibacterial effectiveness of totarol against the pathogenic microorganisms: Gardnerella vaginalis, Streptococcus agalactiae, Enterococcus faecalis at low MIC values safe for bacteria of the Lactobacillus genus.
structure (smiles),measurement,setting,value
"CC(C)c1c(O)ccc2c1CC[C@H]1C(C)(C)CCC[C@]21C [Totarol, totarol]",MIC value,L. plantarum,0.08%
same,viable count by quantitative culture (cfu/ml),"totarol 0.0002%, 0 h",3.9 × 10^5 cfu/ml
same,"OD, average of 3 measurements","totarol 0.0002%, 0 h",0.291
same,viable count by quantitative culture (cfu/ml),"totarol 0.0002%, 8 h",3.5 × 10^5 cfu/ml
same,"OD, average of 3 measurements","totarol 0.0002%, 8 h",0.305
same,viable count by quantitative culture (cfu/ml),"totarol 0.0002%, 16 h",4.2 × 10^6 cfu/ml
same,"OD, average of 3 measurements","totarol 0.0002%, 16 h",0.854
same,viable count by quantitative culture (cfu/ml),"totarol 0.0002%, 24 h",2.9 × 10^7 cfu/ml
same,OD,"totarol 0.0002%, 24 h",1.469
same,viable count by quantitative culture (cfu/ml),"totarol 0.0004%, 0 h",2.1 × 10^5 cfu/ml
same,"OD, average of 3 measurements","totarol 0.0004%, 0 h",0.304
same,viable count by quantitative culture (cfu/ml),"totarol 0.0004%, 8 h",2 × 10^5 cfu/ml
same,"OD, average of 3 measurements","totarol 0.0004%, 8 h",0.309
same,viable count by quantitative culture (cfu/ml),"totarol 0.0004%, 16 h",3.9 × 10^6 cfu/ml
same,"OD, average of 3 measurements","totarol 0.0004%, 16 h",0.892
same,viable count by quantitative culture (cfu/ml),"totarol 0.0004%, 24 h",3.1 × 10^7 cfu/ml
same,OD,"totarol 0.0004%, 24 h",1.508
same,viable count by quantitative culture (cfu/ml),"totarol 0.0007%, 0 h",6.5 × 10^5 cfu/ml
same,"OD, average of 3 measurements","totarol 0.0007%, 0 h",0.292
same,viable count by quantitative culture (cfu/ml),"totarol 0.0007%, 8 h",4.5 × 10^5 cfu/ml
same,"OD, average of 3 measurements","totarol 0.0007%, 8 h",0.300
same,viable count by quantitative culture (cfu/ml),"totarol 0.0007%, 16 h",8.1 × 10^6 cfu/ml
same,"OD, average of 3 measurements","totarol 0.0007%, 16 h",0.902
same,viable count by quantitative culture (cfu/ml),"totarol 0.0007%, 24 h",5.1 × 10^7 cfu/ml
same,OD,"totarol 0.0007%, 24 h",1.504
same,viable count by quantitative culture (cfu/ml),"totarol 0.0013%, 0 h",3.8 × 10^5 cfu/ml
same,"OD, average of 3 measurements","totarol 0.0013%, 0 h",0.293
same,viable count by quantitative culture (cfu/ml),"totarol 0.0013%, 8 h",3.2 × 10^5 cfu/ml
same,"OD, average of 3 measurements","totarol 0.0013%, 8 h",0.305
same,viable count by quantitative culture (cfu/ml),"totarol 0.0013%, 16 h",5.1 × 10^6 cfu/ml
same,"OD, average of 3 measurements","totarol 0.0013%, 16 h",0.913
same,viable count by quantitative culture (cfu/ml),"totarol 0.0013%, 24 h",4.1 × 10^7 cfu/ml
same,OD,"totarol 0.0013%, 24 h",1.521
same,viable count by quantitative culture (cfu/ml),"totarol 0.0025%, 0 h",2.8 × 10^5 cfu/ml
same,"OD, average of 3 measurements","totarol 0.0025%, 0 h",0.284
same,viable count by quantitative culture (cfu/ml),"totarol 0.0025%, 8 h",1.0 × 10^5 cfu/ml
same,"OD, average of 3 measurements","totarol 0.0025%, 8 h",0.303
same,viable count by quantitative culture (cfu/ml),"totarol 0.0025%, 16 h",8.4 × 10^6 cfu/ml
same,"OD, average of 3 measurements","totarol 0.0025%, 16 h",0.914
same,viable count by quantitative culture (cfu/ml),"totarol 0.0025%, 24 h",1.4 × 10^7 cfu/ml
same,OD,"totarol 0.0025%, 24 h",1.552
same,viable count by quantitative culture (cfu/ml),"totarol 0.005%, 0 h",4.2 × 10^5 cfu/ml
same,"OD, average of 3 measurements","totarol 0.005%, 0 h",0.288
same,viable count by quantitative culture (cfu/ml),"totarol 0.005%, 8 h",1.2 × 10^5 cfu/ml
same,"OD, average of 3 measurements","totarol 0.005%, 8 h",0.300
same,viable count by quantitative culture (cfu/ml),"totarol 0.005%, 16 h",1.8 × 10^6 cfu/ml
same,"OD, average of 3 measurements","totarol 0.005%, 16 h",0.895
same,viable count by quantitative culture (cfu/ml),"totarol 0.005%, 24 h",3.8 × 10^7 cfu/ml
same,OD,"totarol 0.005%, 24 h",1.476
same,viable count by quantitative culture (cfu/ml),"totarol 0.01%, 0 h",5.5 × 10^5 cfu/ml
same,"OD, average of 3 measurements","totarol 0.01%, 0 h",0.295
same,viable count by quantitative culture (cfu/ml),"totarol 0.01%, 8 h",5 × 10^5 cfu/ml
same,"OD, average of 3 measurements","totarol 0.01%, 8 h",0.298
same,viable count by quantitative culture (cfu/ml),"totarol 0.01%, 16 h",6.4 × 10^6 cfu/ml
same,"OD, average of 3 measurements","totarol 0.01%, 16 h",0.871
same,viable count by quantitative culture (cfu/ml),"totarol 0.01%, 24 h",3.4 × 10^7 cfu/ml
same,OD,"totarol 0.01%, 24 h",1.445
same,viable count by quantitative culture (cfu/ml),"totarol 0.02%, 0 h",7.5 × 10^5 cfu/ml
same,"OD, average of 3 measurements","totarol 0.02%, 0 h",0.330
same,viable count by quantitative culture (cfu/ml),"totarol 0.02%, 8 h",1.0 × 10^5 cfu/ml
same,"OD, average of 3 measurements","totarol 0.02%, 8 h",0.299
same,viable count by quantitative culture (cfu/ml),"totarol 0.02%, 16 h",5.1 × 10^6 cfu/ml
same,"OD, average of 3 measurements","totarol 0.02%, 16 h",0.837
same,viable count by quantitative culture (cfu/ml),"totarol 0.02%, 24 h",3.1 × 10^7 cfu/ml
same,OD,"totarol 0.02%, 24 h",1.375
same,viable count by quantitative culture (cfu/ml),"totarol 0.04%, 0 h",2.6 × 10^5 cfu/ml
same,"OD, average of 3 measurements","totarol 0.04%, 0 h",0.398
same,viable count by quantitative culture (cfu/ml),"totarol 0.04%, 8 h",1.6 × 10^5 cfu/ml
same,"OD, average of 3 measurements","totarol 0.04%, 8 h",0.370
same,viable count by quantitative culture (cfu/ml),"totarol 0.04%, 16 h",2.4 × 10^5 cfu/ml
same,"OD, average of 3 measurements","totarol 0.04%, 16 h",0.379
same,viable count by quantitative culture (cfu/ml),"totarol 0.04%, 24 h",2.4 × 10^5 cfu/ml
same,OD,"totarol 0.04%, 24 h",0.397
same,viable count by quantitative culture (cfu/ml),"totarol 0.08%, 0 h",3.2 × 10^5 cfu/ml
same,"OD, average of 3 measurements","totarol 0.08%, 0 h",0.401
same,viable count by quantitative culture (cfu/ml),"totarol 0.08%, 8 h",1.2 × 10^4 cfu/ml
same,"OD, average of 3 measurements","totarol 0.08%, 8 h",0.413
same,viable count by quantitative culture (cfu/ml),"totarol 0.08%, 16 h",3.5 × 10^4 cfu/ml
same,"OD, average of 3 measurements","totarol 0.08%, 16 h",0.368
same,viable count by quantitative culture (cfu/ml),"totarol 0.08%, 24 h",5 × 10^4 cfu/ml
same,OD,"totarol 0.08%, 24 h",0.357
same,viable count by quantitative culture (cfu/ml),"totarol 0.16%, 0 h",3.7 × 10^5 cfu/ml
same,"OD, average of 3 measurements","totarol 0.16%, 0 h",0.472
same,viable count by quantitative culture (cfu/ml),"totarol 0.16%, 8 h",4 × 10^4 cfu/ml
same,"OD, average of 3 measurements","totarol 0.16%, 8 h",0.320
same,viable count by quantitative culture (cfu/ml),"totarol 0.16%, 16 h",7.1 × 10^4 cfu/ml
same,"OD, average of 3 measurements","totarol 0.16%, 16 h",0.346
same,viable count by quantitative culture (cfu/ml),"totarol 0.16%, 24 h",4.1 × 10^4 cfu/ml
same,OD,"totarol 0.16%, 24 h",0.371
